Source: the supplement of paper PMC10307832

Assays:
Experiment in all cases: relative viability (nuclei count vs DMSO), 5 days (fraction); higher = more cells survive
Zebularine + Dasatinib = compound: O=c1ncccn1[C@@H]1O[C@H](CO)[C@@H](O)[C@H]1O [Zebularine] + Cc1nc(Nc2ncc(C(=O)Nc3c(C)cccc3Cl)s2)cc(N2CCN(CCO)CC2)n1 [Dasatinib] (partner 0.075 µM)
Summary of the method: (§1)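 Relative viability divides the nuclei count in treated wells by that in vehicle wells. Lung cancer cell lines were seeded in 1536-well plates, dosed by pin tool the next day, and fixed and stained after 5 days in one step with final 0.05% Triton X-100, 1% formaldehyde and 1 ug/ml Hoechst. Dosing was a single drug or a fixed anchor-drug dose plus five library-drug doses (not always all listed) in √10 steps, and values are medians of duplicate plates imaged at 4×.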

BI-D1870 + Decitabine = compound: CC(C)CCN1c2nc(Nc3cc(F)c(O)c(F)c3)ncc2N(C)C(=O)C1C [BI-D1870] + Nc1ncn([C@H]2C[C@H](O)[C@@H](CO)O2)c(=O)n1 [Decitabine] (partner 2 µM)
Summary of the method: as §1

Zebularine + Luminespib = compound: O=c1ncccn1[C@@H]1O[C@H](CO)[C@@H](O)[C@H]1O [Zebularine] + CCNC(=O)c1noc(-c2cc(C(C)C)c(O)cc2O)c1-c1ccc(CN2CCOCC2)cc1 [Luminespib] (partner 0.01 µM)
Summary of the method: as §1

BI-D1870 + Bortezomib = compound: CC(C)CCN1c2nc(Nc3cc(F)c(O)c(F)c3)ncc2N(C)C(=O)C1C [BI-D1870] + CC(C)C[C@H](NC(=O)[C@H](Cc1ccccc1)NC(=O)c1cnccn1)B(O)O [Bortezomib] (partner 0.002 µM)
Summary of the method: as §1

Cell Line	relative viability (Zebularine + Dasatinib; first compound 1 µM)	relative viability (Zebularine + Dasatinib; first compound 3.162 µM)	relative viability (Zebularine + Dasatinib; first compound 10 µM)	relative viability (Zebularine + Dasatinib; first compound 31.62 µM)	relative viability (Zebularine + Dasatinib; first compound 100 µM)	relative viability (BI-D1870 + Decitabine; first compound 0.04 µM)	relative viability (BI-D1870 + Decitabine; first compound 0.1265 µM)	relative viability (BI-D1870 + Decitabine; first compound 0.4 µM)	relative viability (BI-D1870 + Decitabine; first compound 1.265 µM)	relative viability (BI-D1870 + Decitabine; first compound 4 µM)	relative viability (Zebularine + Luminespib; first compound 1 µM)	relative viability (Zebularine + Luminespib; first compound 3.162 µM)	relative viability (Zebularine + Luminespib; first compound 10 µM)	relative viability (Zebularine + Luminespib; first compound 31.62 µM)	relative viability (Zebularine + Luminespib; first compound 100 µM)	relative viability (BI-D1870 + Bortezomib; first compound 0.04 µM)	relative viability (BI-D1870 + Bortezomib; first compound 0.1265 µM)	relative viability (BI-D1870 + Bortezomib; first compound 0.4 µM)	relative viability (BI-D1870 + Bortezomib; first compound 1.265 µM)	relative viability (BI-D1870 + Bortezomib; first compound 4 µM)
LXF-289	0.233	0.187	0.184	0.175	0.154	0.35	0.382	0.372	0.411	0.416	0.729	0.75	0.444	0.382	0.202	1.05	1.02	1	0.977	0.879
NCI-H23	0.83	0.876	0.497	0.774	0.791	0.336	0.329	0.306	0.333	0.242	0.217	0.221	0.21	0.211	0.199	1.44	0.85	1.16	1.03	0.529
NCI-H322M	0.257	0.263	0.237	0.278	0.246	0.721	0.631	0.68	0.655	0.729	0.905	0.992	0.707	0.703	0.662	1.23	1.24	1.22	1.14	1.06
NCI-H441	0.705	0.619	0.394	0.41	0.271	0.249	0.273	0.275	0.255	0.312	0.301	0.266	0.298	0.244	0.225	0.749	0.535	0.796	0.777	0.71
NCI-H460	0.725	0.527	0.326	0.304	0.0827	0.548	0.459	0.473	0.593	0.443	0.0314	0.0246	0.0322	0.0331	0.0289	1.45	1.01	1.06	0.686	0.51
NCI-H520	0.195	0.175	0.14	0.172	0.164	0.406	0.494	0.597	0.649	0.471	0.262	0.261	0.186	0.246	0.192	0.618	0.521	0.525	0.542	0.309
NCI-H596	0.606	0.648	0.461	0.694	0.565	1.06	0.857	0.956	1.14	0.999	0.897	0.914	0.662	1.13	0.715	1.38	0.86	1.12	1.19	0.943
NCI-H647	0.202	0.208	0.129	0.101	0.109	0.386	0.339	0.481	0.455	0.537	0.242	0.173	0.141	0.0957	0.0958	1.02	0.857	1.08	1.31	0.743
